Results from patent publication US10245249B2, “Pharmaceutical compositions comprising nitroxyl donors” (Cardioxyl Pharmaceuticals, Inc., priority 2013, dated 2019).

Legend:
[1] = In vitro stability (half-life) in phosphate buffered saline (PBS) pH 7.4; format: physicochemical; details: pH 7.4, 5 μM, PBS pH 7.4, 37° C., read-out: T1/2 (minutes) PBS
Method: (§1) Certain compounds from Tables 1 and 2 and CXL-1020 were tested for their stability in phosphate buffered saline (PBS) and plasma. The assay system comprised (i) PBS, or plasma from rat, dog or human (at least 3 donors, male, pooled) at pH 7.4, and (ii) for tests conducted in plasma, an anticoagulant (sodium heparin or sodium citrate). Each test compound (5 μM) was incubated in PBS or plasma at 37° C. on a THERMOMIXER® with shaking. Three samples (n=3) were taken at each of seven sampling time points: 0, 10, 30, 60, 90, 180 and 360 minutes. The samples were immediately combined with 3 volumes (i.e., 3 times the volume of PBS or plasma) of acetonitrile containing 1% formic acid and an internal standard to terminate the reaction. AB SCIEX API 3000 LC-MS/MS analysis of the test compounds was performed without a standard curve. Half-lives (T1/2) of the test compounds were determined from graphs of the percent remaining values using the peak area response ratio. For compounds tested multiple times, the value provided in the Table represents an average of the replicate assays.

[2] = In vitro stability (half-life) in dog plasma; format: in vitro ADME; details: dog plasma pH 7.4 with anticoagulant, 37° C.; for half-life at 5 μM: male, dog, plasma, pH 7.4, 5 μM, read-out: T1/2 (minutes) Dog
Method: as §1

[3] = HNO production determined via N2O quantification (GC headspace analysis); format: physicochemical; details: PBS, 37° C.
Method in brief: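 Compounds dissolved in argon-purged anhydrous DMF were added to argon-purged PBS in sealed vials at 37° C for the set incubation time; headspace N2O was measured by GC with micro-ECD. N2O gas and CXL-1020 served as standards, and relative N2O yield (%) was calculated per incubation time.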

[4] = In vitro stability (half-life) in human plasma; format: in vitro ADME; details: male, human plasma pH 7.4 with anticoagulant, 37° C., read-out: T1/2 (minutes) Human
Method: as §1

[5] = In vitro stability (half-life) in rat plasma; format: in vitro ADME; details: rat plasma pH 7.4 with anticoagulant, 37° C.; for half-life at 5 μM: male, rat, plasma, pH 7.4, 5 μM, read-out: T1/2 (minutes) Rat; for T1/2 (minutes) Rat: 5 μM
Method: as §1

[6] = system: beagle dogs; experiment: Canine peripheral vein toxicity model, 24 hour infusion (clinical pathology markers of inflammation: WBC, fibrinogen, CRP); format: in vivo
Method: Key inflammatory markers measured include white blood cells (WBC), fibrinogen, and C-reactive protein (CRP).
After 24 hours of infusion, clinical pathology changes similar to those observed in previous studies using an implanted central catheter were detected.
Studies were conducted in male and female beagle dogs. Animals were allowed free access to drinking water and a commercial canine diet under standard laboratory conditions. Animals were fasted prior to blood sample collections when indicated by the study protocol. Fluorescent lighting was provided via an automatic timer for approximately 12 hours per day. On occasion, the dark cycle was interrupted intermittently due to study-related activities. Temperature and humidity were monitored and recorded daily and maintained to the maximum extent possible between 64° F. to 84° F. and 30% to 70%, respectively. The dogs were acclimated for a period of at least 1 week. During this period, the animals were weighed weekly and observed with respect to general health and any signs of disease. The animals were acclimated to wearing a jacket for at least three days prior to dose administration. Additionally, the animals were also acclimated to wearing an Elizabethan collar (e-collar) during the jacket acclimation.
Animals were catheterized the day prior to dose administration. A percutaneous catheter was placed (using aseptic technique and sterile bandaging) in the cephalic vein distal to the elbow. The animals were free-moving in their cages during continuous infusion dose administration. To facilitate continuous infusion dose administration, the peripheral catheter was attached to an extension set routed underneath a canine jacket and then attached to a tether infusion system. To prevent the animals from accessing/removing the peripherally placed percutaneous catheter, the catheterization site was bandaged using Vet Wrap and an e-collar was placed on the animals for the duration of the treatment (i.e., the catheterized period). During the pretreatment period, the venous catheter was infused continuously at a rate of approximately 2-4 mL/hr with 0.9% sodium chloride for injection, USP (saline) to maintain catheter patency. Prior to dosing, the infusion system was pre-filled (slow bolus infusion) with the respective dosing solution to ensure that dosing began as soon as the infusion pump was started. The infusion line was connected to a reservoir containing the control or test compound and the infusion was started. Test compositions were infused continuously, at a predetermined constant infusion rate (1 or 2 mL/kg/hr), for 24 hours and were compared at molar equivalent dose rates.
A detailed clinical examination of each animal was performed twice daily and body temperature measurements and blood samples for clinical pathology were collected from all animals pre-dose and 6 hours, 12 hours, 24 hours and 72 hours post start of composition infusion. At the termination of the study, all animals were euthanized at their scheduled necropsy and complete necropsy examinations were performed. Selected tissues were collected, fixed and stored for potential future microscopic examination. The cephalic vein containing the infusion catheter was dissected intact along with the brachial vein and examined along its entire length. The location of the catheter tip was marked on the unfixed specimen. After fixation, the specimen was trimmed and processed to slide to provide transverse histologic sections representing the catheter tip and surrounding tissues both proximal and distal to the catheter tip (i.e., 1 cm distal to the catheter tip, at the catheter tip, and 1, 5, 10, 15, and 20 cm proximal to the catheter tip). Relative to the catheter tip, “proximal” was defined as closer to the heart and “distal” was defined as further from the heart.
Each compound was formulated with CAPTISOL® (7% w/v) in sterile water at a pH of 4. […]

[7] = system: dogs; experiment: Toxicological profile of compositions formulated at pH 4 or pH 6, 24 hour infusion at 3 μg/kg/min; format: in vivo; details: 1:1 molar donor:CAPTISOL, infused at 3 μg/kg/min, FIG. 4
Method: For samples at a pH of 4, the compositions were prepared by admixing a 1:1 molar ratio of the nitroxyl donor:CAPTISOL®, lyophilizing the admixture, then diluting the lyophilized admixture into D5W. For samples at a pH of 6, the compositions were prepared by admixing a 1:1 molar ratio of the nitroxyl donor:CAPTISOL®, lyophilizing the admixture, then diluting the lyophilized admixture into D5W with 5 mM potassium phosphate. Compounds were infused at a rate of 3 μg/kg/min.

[8] = system: dogs; experiment: Canine implanted central catheter 72 hour continuous infusion model (clinical and microscopic pathology of vasculature); format: in vivo
Method: To determine the cause of the inflammation and hind limb swelling, a series of 72-hour continuous infusion investigative studies were conducted over the following 6 months. […] The first site of inflammation, the catheter insertion site, caused the dog hind limb swelling and inflammation observed in the early-terminated follow-up study. Increasing infusate pH from 4 to 6 decreased inflammation, improving the inflammatory profile by approximately 3-fold (see FIG. 4).
Confirmation of this was obtained through evaluating the nitroxyl donors through detailed histopathology of the vasculature at the site of insertion of into the femoral vein (15 cm distal to the catheter tip), along the catheter track to the catheter tip, and past the tip downstream 20 cm.
A composite score was calculated from the sum of these findings scores. In FIG. 3, the cumulative histology composite score ranges from 0-2 (low severity) to 11-12 (high severity). […] The NOAEL values determined based on these microscopic pathology markers for a series of nitroxyl donors, expressed in molar equivalent dose rates (μg/kg/min) to CXL-1020, are provided in Table 8.

[9] = Exploratory studies on the cause of CXL-1020 side effects (byproduct, alternative short half-life donors); format: in vivo; details: studies conducted with the byproduct
Method: Exploratory studies were continued to determine the cause of the undesirable side effects of CXL-1020 at the higher, but still clinically desirable, doses. […] Studies were conducted with alternative Nitroxyl donors that were structurally unrelated to CXL-1020 but had similar half-lives for nitroxyl donation (half-lives of about 2 minutes). In all instances, local vascular side effects at the catheter tip were observed.

half-life at 5 μM [1] [min] | half-life at 5 μM [2] [min] | half-life at 5 μM [4] [min] | half-life at 5 μM [5] [min] | SMILES | Relative N2O Yield (90 minutes incubation) [3] [%] | Relative N2O Yield (360 minutes incubation) [3] [%] | further results
98 | 38 | 71 | 37 | Cc1oncc1S(=O)(=O)NO [Compound 3, N-Hydroxy-5-methyl-1,2-oxazole-4-sulfonamide] | 45 | 56 | 
 |  | 99 |  | Cc1noc(C)c1S(=O)(=O)NO [Compound 27, N-Hydroxy-3,5-dimethyl-1,2-oxazole-4-sulfonamide] | 35.5 | 66 | T1/2 (minutes) Rat [5]: 75 min
76 | 34 |  | 38.4 | O=S(=O)(NO)c1cccc(Br)c1 [Compound 89, 3-Bromo-N-hydroxybenzene-1-sulfonamide] |  |  | 
25.1 | 21 |  | 6.8 | Cc1ccc(F)cc1S(=O)(=O)NO [Compound 90, 5-Fluoro-N-hydroxy-2-methylbenzene-1-sulfonamide] | 90 |  | 
211 | 54.4 |  |  | Cc1noc(C)c1S(=O)(=O)NO [Compound 91, N-Hydroxy-3,5-dimethyl-1,2-oxazole-4-sulfonamide] |  |  | T1/2 (minutes) Rat [5]: 176 min
58 | 19 | 40 | 35 | O=S(=O)(NO)c1cccc(OC(F)(F)F)c1 [Compound 92, N-Hydroxy-3-(trifluoromethoxy)benzene-1-sulfonamide] | 59 |  | T1/2 (minutes) Dog ([2]; 5 μM): 18.5 min; T1/2 (minutes) Rat [5]: 35.1 min
68 |  | 35 | 38 | CS(=O)(=O)c1ccc(S(=O)(=O)NO)cc1 [Compound 93, N-Hydroxy-4-methanesulfonylbenzene-1-sulfonamide] | 86 |  | 

The remaining lines, values behind:

SMILES | half-life at 5 μM [1] [min] | half-life at 5 μM [2] [min] | half-life at 5 μM [4] [min] | half-life at 5 μM [5] [min] | Relative N2O Yield (90 minutes incubation) [3] [%] | Relative N2O Yield (360 minutes incubation) [3] [%] | further results
CC(C)NC(=O)c1cc(S(=O)(=O)NO)cs1 [Compound 5, 4-(Hydroxysulfamoyl)-N-(propan-2-yl)thiophene-2-carboxamide] | 136 | 28 | 24 | 104 | 48 | 72 | 
O=S(=O)(NO)c1cccnc1 [Compound 26, N-Hydroxypyridine-3-sulfonamide] | 53 |  | 45 | 29 | 73.5 |  | 
O=S(=O)(NO)c1ccc(Cl)s1 [Compound 86, 5-Chloro-N-hydroxythiophene-2-sulfonamide] | 38 | 12 | 18 |  |  |  | NOAEL (μg/kg/min) (actual) ([6]; based on clinical pathology markers (WBC, fibrinogen, CRP), 24 hour infusion, CAPTISOL 7% w/v, pH 4): 3 µg/kg/min; NOAEL compared with CXL-1020 ([6]; clinical pathology markers): significantly higher than that of CXL-1020; effect of increasing infusate pH from approximately 4 to approximately 6 on toxicology [7]: improved the toxicology; NOAEL (μg/kg/min) (molar equivalent to CXL-1020) ([8]; based on microscopic pathology markers (edema, hemorrhage, vascular and perivascular inflammation)): ≥180 µg/kg/min; toxicological profile relative to CXL-1020 ([8]; microscopic pathology, Table 8): substantially improved toxicological profile relative to CXL-1020
O=S(=O)(NO)c1ccc(F)c(Cl)c1 [Compound 87, 3-Chloro-4-fluoro-N-hydroxybenzene-1-sulfonamide] | 101 | 24 |  | 49 | 53 | 79 | 
O=S(=O)(NO)c1cccc(S(=O)(=O)NO)c1 [Compound 88, 1-N,3-N-Dihydroxybenzene-1,3-disulfonamide] | 38 | 16 |  |  | 53 | 100 | 
CS(=O)(=O)c1ccccc1S(=O)O [byproduct of CXL-1020] |  |  |  |  |  |  | side effects [9]: negative
